Source: patent US9051270B2, “Pyridone amides as modulators of sodium channels” (Vertex Pharmaceuticals Incorporated, priority 2013, dated 2015)
Blank lines part the entries; values can stand above or below the molecule they belong to.

Target: human Nav1.8 (Homo sapiens (Human), UniProt Q9Y5Y9)
Experiment: E-VIPR optical membrane potential assay with electrical stimulation
Format: cell-based
Settings: HEK cells expressing human Nav1.8
Description: Sodium channels are voltage-dependent proteins that can be activated by inducing membrane voltage changes by applying electric fields. […] The instrument comprises a microtiter plate handler, an optical system for exciting the coumarin dye while simultaneously recording the coumarin and oxonol emissions, a waveform generator, a current- or voltage-controlled amplifier, and a device for inserting electrodes in well. Under integrated computer control, this instrument passes user-programmed electrical stimulus protocols to cells within the wells of the microtiter plate.
24 hours before the assay on E-VIPR, HEK cells expressing human Nav1.8 were seeded in 384-well poly-lysine coated plates at 15,000-20,000 cells per well. […] Cells were grown in vented cap flasks, in 90% humidity and 5% CO2.
To make the solution added volume of 10% Pluronic F127 stock equal to volumes of CC2-DMPE+DiSBAC6(3). The order of preparation was first mixing Pluronic and CC2-DMPE, then adding DiSBAC6(3) while vortexing, then adding Bath1+β-Cyclodextrin.
1) Pre-spotted compounds (in neat DMSO) into compound plates. […] Final compound plate volume was 80 μL (80-fold intermediate dilution from 1 μL DMSO spot; 160-fold final dilution after transfer to cell plate).
2) Prepared Hexyl Dye Solution.
3) Prepared cell plates. On the day of the assay, medium was aspirated and cells were washed three times with 100 μL of Bath1 Solution, maintaining 25 μL residual volume in each well.
4) Dispensed 25 μL per well of Hexyl Dye Solution into cell plates. Incubated for 20-35 minutes at room temp or ambient conditions.
5) Dispensed 80 μL per well of Bath1 into compound plates. Acid Yellow-17 (1 mM) was added and Potassium Chloride was altered from 4.5 to 20 mM depending on the NaV subtype and assay sensitivity.
6) Washed cell plates three times with 100 μL per well of Bath1, leaving 25 μL of residual volume. Then transferred 25 uL per well from Compound Plates to Cell Plates. Incubated for 20-35 minutes at room temp/ambient condition.
7) Read Plate on E-VIPR. […] A pre-stimulus recording was performed for 0.5 seconds to obtain the un-stimulated intensities baseline. The stimulatory waveform was followed by 0.5 seconds of post-stimulation recording to examine the relaxation to the resting state.
Data was analyzed and reported as normalized ratios of emission intensities measured in the 460 nm and 580 nm channels. The response as a function of time was reported as the ratios obtained using the following formula: […]
The data was further reduced by calculating the initial (Ri) and final (Rf) ratios. These were the average ratio values during part or all of the pre-stimulation period, and during sample points during the stimulation period. The response to the stimulus R=Rf/Ri was then calculated and reported as a function of time.
Control responses were obtained by performing assays in the presence of a compound with the desired properties (positive control), such as tetracaine, and in the absence of pharmacological agents (negative control). Responses to the negative (N) and positive (P) controls were calculated as above. The compound antagonist activity A is defined as:
[formula] where R is the ratio response of the test compound

Chain of human Nav1.8 (Q9Y5Y9 whole entry): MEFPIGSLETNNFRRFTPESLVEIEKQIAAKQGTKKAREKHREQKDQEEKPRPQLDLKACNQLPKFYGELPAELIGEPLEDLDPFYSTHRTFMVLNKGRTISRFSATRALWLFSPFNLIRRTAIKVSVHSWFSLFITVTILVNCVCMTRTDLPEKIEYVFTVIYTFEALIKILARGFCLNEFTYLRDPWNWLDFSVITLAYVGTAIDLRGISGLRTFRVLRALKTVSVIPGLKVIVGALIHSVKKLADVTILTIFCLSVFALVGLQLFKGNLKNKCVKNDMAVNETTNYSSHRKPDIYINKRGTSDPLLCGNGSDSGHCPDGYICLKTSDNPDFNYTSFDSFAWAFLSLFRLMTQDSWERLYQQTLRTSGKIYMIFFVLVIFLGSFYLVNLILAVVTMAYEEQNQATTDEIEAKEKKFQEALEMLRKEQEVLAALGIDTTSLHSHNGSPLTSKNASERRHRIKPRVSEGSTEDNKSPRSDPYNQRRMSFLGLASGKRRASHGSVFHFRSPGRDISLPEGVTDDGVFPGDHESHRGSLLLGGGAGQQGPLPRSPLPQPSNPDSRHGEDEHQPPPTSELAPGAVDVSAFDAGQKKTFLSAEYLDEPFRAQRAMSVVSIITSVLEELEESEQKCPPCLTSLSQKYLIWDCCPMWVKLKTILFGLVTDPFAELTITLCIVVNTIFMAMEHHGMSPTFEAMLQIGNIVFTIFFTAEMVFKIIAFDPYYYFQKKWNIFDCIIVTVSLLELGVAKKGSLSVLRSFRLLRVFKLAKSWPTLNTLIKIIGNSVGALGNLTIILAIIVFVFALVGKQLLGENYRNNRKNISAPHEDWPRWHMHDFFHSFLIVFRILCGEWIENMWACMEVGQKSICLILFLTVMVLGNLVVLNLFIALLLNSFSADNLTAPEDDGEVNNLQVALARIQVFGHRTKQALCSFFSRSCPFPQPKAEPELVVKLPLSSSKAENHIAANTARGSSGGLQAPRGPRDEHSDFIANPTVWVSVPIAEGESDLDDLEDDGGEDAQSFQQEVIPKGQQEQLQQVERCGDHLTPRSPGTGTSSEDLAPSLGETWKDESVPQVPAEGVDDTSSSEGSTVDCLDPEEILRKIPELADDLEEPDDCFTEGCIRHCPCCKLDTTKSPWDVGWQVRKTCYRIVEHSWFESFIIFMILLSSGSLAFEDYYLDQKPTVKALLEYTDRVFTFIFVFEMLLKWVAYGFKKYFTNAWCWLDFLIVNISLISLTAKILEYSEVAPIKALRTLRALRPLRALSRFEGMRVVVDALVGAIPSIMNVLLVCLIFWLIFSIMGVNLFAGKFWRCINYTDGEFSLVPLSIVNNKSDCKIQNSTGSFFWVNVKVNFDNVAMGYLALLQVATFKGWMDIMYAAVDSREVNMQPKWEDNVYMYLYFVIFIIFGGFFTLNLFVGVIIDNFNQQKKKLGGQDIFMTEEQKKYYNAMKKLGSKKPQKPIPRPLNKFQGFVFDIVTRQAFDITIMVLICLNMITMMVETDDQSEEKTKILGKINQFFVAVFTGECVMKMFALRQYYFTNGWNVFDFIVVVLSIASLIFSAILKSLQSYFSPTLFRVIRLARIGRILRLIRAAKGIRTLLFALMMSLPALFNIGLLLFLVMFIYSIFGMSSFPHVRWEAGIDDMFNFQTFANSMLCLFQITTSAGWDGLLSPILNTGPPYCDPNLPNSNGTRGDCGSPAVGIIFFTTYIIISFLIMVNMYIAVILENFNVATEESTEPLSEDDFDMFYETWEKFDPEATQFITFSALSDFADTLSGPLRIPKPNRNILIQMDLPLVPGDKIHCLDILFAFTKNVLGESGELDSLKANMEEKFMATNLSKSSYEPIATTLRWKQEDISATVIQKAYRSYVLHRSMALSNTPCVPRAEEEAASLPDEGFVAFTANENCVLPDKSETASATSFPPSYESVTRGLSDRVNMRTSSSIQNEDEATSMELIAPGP

Structure (SMILES): O=C(Nc1cc[nH]c(=O)c1)c1c(Oc2ccccc2)cc(C(F)(F)F)cc1C(F)(F)F [Compound 156, N-(2-oxo-1,2-dihydropyridin-4-yl)-2-phenoxy-4,6-bis(trifluoromethyl)benzamide]
IC50: 52 nM

Structure (SMILES): CC1(COc2cc(C(F)(F)F)ccc2C(=O)Nc2cc[nH]c(=O)c2)CC1 [Compound 119]
IC50: 14000 nM

Structure (SMILES): COc1cc(F)cc(Oc2ccc(C(F)(F)F)cc2C(=O)Nc2cc[nH]c(=O)c2)c1 [Compound 57, 2-(3-fluoro-5-methoxyphenoxy)-N-(2-oxo-1,2-dihydropyridin-4-yl)-5-(trifluoromethyl)benzamide]
IC50: 6900 nM

Structure (SMILES): Cc1cc(C)c(C)c(Oc2ccc(C(F)(F)F)cc2C(=O)Nc2cc[nH]c(=O)c2)c1 [Compound 91, N-(2-oxo-1,2-dihydropyridin-4-yl)-5-(trifluoromethyl)-2-(2,3,5-trimethylphenoxy)benzamide]
IC50: 420 nM

Structure (SMILES): CC(C)CCOc1cc(C(F)(F)F)ccc1C(=O)Nc1cc[nH]c(=O)c1 [Compound 116, 2-(isopentyloxy)-N-(2-oxo-1,2-dihydropyridin-4-yl)-4-(trifluoromethyl)benzamide]
IC50: 488 nM

Structure (SMILES): O=C(Nc1cc[nH]c(=O)c1)c1ccc(C(F)(F)F)cc1OC1CCCCC1 [Compound 128, 2-(cyclohexyloxy)-N-(2-oxo-1,2-dihydropyridin-4-yl)-4-(trifluoromethyl)benzamide]
IC50: 560 nM

Structure (SMILES): O=C(Nc1cc[nH]c(=O)c1)c1ccc(C(F)(F)F)cc1OC1CC2CCC1C2 (stereo not shown) [Compound 127, 2-(bicyclo[2.2.1]heptan-2-yloxy)-N-(2-oxo-1,2-dihydropyridin-4-yl)-4-(trifluoromethyl)benzamide]
IC50: 1300 nM

Structure (SMILES): O=C(Nc1cc[nH]c(=O)c1)c1cc(C(F)(F)F)ccc1OC1C[C@@H]2C[C@@H]2C1 (stereo partly shown) [Compound 135]
IC50: 1650 nM

Structure (SMILES): CCCOc1ccccc1Oc1ccc(C(F)(F)F)cc1C(=O)Nc1cc[nH]c(=O)c1 [Compound 62, N-(2-oxo-1,2-dihydropyridin-4-yl)-2-(2-propoxyphenoxy)-5-(trifluoromethyl)benzamide]
IC50: 34 nM

Structure (SMILES): O=C(Nc1ccc(=O)[nH]c1)c1ccccc1Oc1ccc(F)cc1 [Compound 3, 2-(4-fluorophenoxy)-N-(6-oxo-1,6-dihydropyridin-3-yl)benzamide]
IC50: 13500 nM

Structure (SMILES): O=C(Nc1cc[nH]c(=O)c1)c1cc(OC(F)(F)F)ccc1OC1CCCCC1 [Compound 137, 2-(cyclohexyloxy)-N-(2-oxo-1,2-dihydropyridin-4-yl)-5-(trifluoromethoxy)benzamide]
IC50: 12600 nM

Structure (SMILES): O=C(Nc1cc[nH]c(=O)c1)c1ccc(C(F)(F)F)cc1OC1CCC1 [Compound 122, 2-cyclobutoxy-N-(2-oxo-1,2-dihydropyridin-4-yl)-4-(trifluoromethyl)benzamide]
IC50: 4200 nM

Structure (SMILES): Cc1cc(F)ccc1Oc1cc(C(F)(F)F)cc(C(F)(F)F)c1C(=O)Nc1cc[nH]c(=O)c1 [Compound 153, 2-(4-fluoro-2-methylphenoxy)-N-(2-oxo-1,2-dihydropyridin-4-yl)-4,6-bis(trifluoromethyl)benzamide]
IC50: 10 nM

Structure (SMILES): O=C(Nc1cc[nH]c(=O)c1)c1cc(OC(F)(F)F)ccc1OCC1CCCC1 [Compound 136, 2-(cyclopentylmethoxy)-N-(2-oxo-1,2-dihydropyridin-4-yl)-5-(trifluoromethoxy)benzamide]
IC50: 2600 nM

Next, values leading:

IC50: 87 nM
Structure (SMILES): O=C(Nc1cc[nH]c(=O)c1)c1cc(C(F)(F)F)ccc1Oc1ccc(Cl)cc1F [Compound 51, 2-(4-chloro-2-fluorophenoxy)-N-(2-oxo-1,2-dihydropyridin-4-yl)-5-(trifluoromethyl)benzamide]

IC50: 4600 nM
Structure (SMILES): Cc1ccc(Oc2cc(C(F)(F)F)ccc2C(=O)Nc2cc[nH]c(=O)c2)cn1 [Compound 146, 2-((6-methylpyridin-3-yl)oxy)-N-(2-oxo-1,2-dihydropyridin-4-yl)-4-(trifluoromethyl)benzamide]

IC50: 107 nM
Structure (SMILES): O=C(Nc1cc[nH]c(=O)c1)c1cc(C(F)(F)F)ccc1Oc1ccccc1Cl [Compound 65, 2-(2-chlorophenoxy)-N-(2-oxo-1,2-dihydropyridin-4-yl)-5-(trifluoromethyl)benzamide]

IC50: 69 nM
Structure (SMILES): O=C(Nc1cc[nH]c(=O)c1)c1cc(Cl)ccc1Oc1ccc(F)cc1 [Compound 67, 5-chloro-2-(4-fluorophenoxy)-N-(2-oxo-1,2-dihydropyridin-4-yl)-benzamide]

IC50: 6000 nM
Structure (SMILES): O=C(Nc1cc[nH]c(=O)c1)c1ccc(Cl)cc1Oc1c(F)cccc1F [Compound 19, 4-chloro-2-(2,6-difluorophenoxy)-N-(2-oxo-1,2-dihydropyridin-4-yl)benzamide]

IC50: 260 nM
Structure (SMILES): O=C(Nc1cc[nH]c(=O)c1)c1cc(OC(F)(F)F)ccc1Oc1ccccc1 [Compound 41, N-(2-oxo-1,2-dihydropyridin-4-yl)-2-phenoxy-5-(trifluoromethoxy)benzamide]

IC50: 24 nM
Structure (SMILES): COc1ccc(Oc2ccc(C(F)(F)F)cc2C(=O)Nc2cc[nH]c(=O)c2)c(Cl)c1 [Compound 49, 2-(2-chloro-4-methoxyphenoxy)-N-(2-oxo-1,2-dihydropyridin-4-yl)-5-(trifluoromethyl)benzamide]

IC50: 70 nM
Structure (SMILES): COc1ccc(Oc2ccc(C(F)(F)F)cc2C(=O)Nc2cc[nH]c(=O)c2)c(F)c1 [Compound 55, 2-(2-fluoro-4-methoxyphenoxy)-N-(2-oxo-1,2-dihydropyridin-4-yl)-5-(trifluoromethyl)benzamide]

IC50: 16 nM
Structure (SMILES): Cc1cc(F)ccc1Oc1cc(C(F)(F)C(F)(F)F)ccc1C(=O)Nc1cc[nH]c(=O)c1 [Compound 112, 2-(4-fluoro-2-methylphenoxy)-N-(2-oxo-1,2-dihydropyridin-4-yl)-4-(perfluoroethyl)benzamide]

IC50: 1400 nM
Structure (SMILES): Cc1cc(C)c(C)c(Oc2ccc(F)cc2C(=O)Nc2cc[nH]c(=O)c2)c1 [Compound 94, 5-fluoro-N-(2-oxo-1,2-dihydropyridin-4-yl)-2-(2,3,5-trimethylphenoxy)benzamide]

IC50: 300 nM
Structure (SMILES): CCOc1ccc(Oc2ccc(F)cc2C(=O)Nc2cc[nH]c(=O)c2)cc1 [Compound 98, 2-(4-ethoxyphenoxy)-5-fluoro-N-(2-oxo-1,2-dihydropyridin-4-yl)benzamide]

IC50: 112 nM
Structure (SMILES): O=C(Nc1cc[nH]c(=O)c1)c1cc(Cl)ccc1Oc1ccc(F)cc1F [Compound 69, 5-chloro-2-(2,4-difluorophenoxy)-N-(2-oxo-1,2-dihydropyridin-4-yl)benzamide]

IC50: 69 nM
Structure (SMILES): O=C(Nc1cc[nH]c(=O)c1)c1cc(OC(F)(F)F)ccc1Oc1ccc(F)cc1 [Compound 38, 2-(4-fluorophenoxy)-N-(2-oxo-1,2-dihydropyridin-4-yl)-5-(trifluoromethoxy)benzamide]

IC50: 93 nM
Structure (SMILES): O=C(Nc1cc[nH]c(=O)c1)c1ccc(C(F)(F)F)cc1Oc1ccccc1 [Compound 9, N-(2-oxo-1,2-dihydropyridin-4-yl)-2-phenoxy-4-(trifluoromethyl)benzamide]

IC50: 843 nM
Structure (SMILES): N#Cc1ccc(C(=O)Nc2cc[nH]c(=O)c2)c(Oc2ccc(F)cc2)c1 [Compound 21, 4-cyano-2-(4-fluorophenoxy)-N-(2-oxo-1,2-dihydropyridin-4-yl)benzamide]

IC50: 12000 nM
Structure (SMILES): O=C(Nc1cc[nH]c(=O)c1)c1cc(OC(F)(F)F)ccc1Oc1c(F)cccc1F [Compound 34, 2-(2,6-difluorophenoxy)-N-(2-oxo-1,2-dihydropyridin-4-yl)-5-(trifluoromethoxy)benzamide]

IC50: 380 nM
Structure (SMILES): O=C(Nc1cc[nH]c(=O)c1)c1c(Oc2ccc(F)cc2)cccc1C(F)(F)F [Compound 43, 2-(4-fluorophenoxy)-N-(2-oxo-1,2-dihydropyridin-4-yl)-6-(trifluoromethyl)benzamide]

IC50: 13 nM
Structure (SMILES): COc1cc(F)ccc1Oc1ccc(Cl)cc1C(=O)Nc1cc[nH]c(=O)c1 [Compound 70, 5-chloro-2-(4-fluoro-2-methoxyphenoxy)-N-(2-oxo-1,2-dihydropyridin-4-yl)benzamide]

IC50: 64 nM
Structure (SMILES): CCOc1ccccc1Oc1ccc(C(F)(F)F)cc1C(=O)Nc1cc[nH]c(=O)c1 [Compound 46, 2-(2-ethoxyphenoxy)-N-(2-oxo-1,2-dihydropyridin-4-yl)-5-(trifluoromethyl)benzamide]

IC50: 340 nM
Structure (SMILES): Cc1ccc(Oc2ccc(C(F)(F)F)cc2C(=O)Nc2cc[nH]c(=O)c2)cc1 [Compound 27, N-(2-oxo-1,2-dihydropyridin-4-yl)-2-(p-tolyloxy)-5-(trifluoromethyl)benzamide]
